Assay results published in patent US20250353855A1, “HETEROCYCLIC AND HETEROARYL COMPOUNDS FOR TREATING HUNTINGTON'S DISEASE” (PTC THERAPEUTICS, INC., priority 2022, published 2025).
Where two headings read alike, the source gives them in different places.

System: Endogenous Huntingtin Protein
Experiment: Endogenous Huntingtin Protein Assay (ELISA-based MSD electrochemiluminescence)
Type: cell-based
Conditions: MSD plates coated with MW1 (expanded polyglutamine) or MAB2166 capture antibody, lysates
Procedure: Compounds of Formula (T) were tested using the Meso Scale Discovery (MSD) Assay provided in International Application No. PCT/US2016/066042, filed on Dec. 11, 2016 and claiming priority to U.S. Provisional Application 62/265,652 filed on Dec. 10, 2015, the entire contents of which are incorporated herein by reference.
The Endogenous Huntingtin Protein assay used in Example 1 was developed using the ELISA-based MSD electrochemiluminescence assay platform.
Meso Scale Discovery (MSD) 96-well or 384-well plates were coated overnight at 4° C. with MW1 (expanded polyglutamine) or MAB2166 monoclonal antibody (for capture) at a concentration of 1 μg/mL in PBS (30 μL per well). Plates were then washed three times with 300 μL wash buffer (0.05% Tween-20 in PBS) and blocked (100 μL blocking buffer; 5% BSA in PBS) for 4-5 hours at room temperature with rotational shaking and then washed three times with wash buffer.
Samples (25 μL) were transferred to the antibody-coated MSD plate and incubated overnight at 4° C. After removal of the lysates, the plate was washed three times with wash buffer, and 25 μL of #5656S (Cell signaling; rabbit monoclonal) secondary antibody (diluted to 0.25 μg/mL in 0.05% Tween-20 in blocking buffer) was added to each well and incubated with shaking for 1 Hour at room temperature. Following incubation with the secondary antibody, the wells were rinsed with wash buffer after which 25 μL of goat anti-rabbit SULFO TAG secondary detection antibody (required aspect of the MSD system) (diluted to 0.25 μg/mL in 0.05% Tween-20 in blocking buffer) was added to each well and incubated with shaking for 1 hour at room temperature. After rinsing three times with wash buffer, 150 μL of read buffer T with surfactant (MSD) were added to each empty well, and the plate was imaged on a SI 6000 imager (MSD) according to manufacturers' instructions provided for 96- or 384-well plates.

| Compound | IC50 (read-out: IC50) [nM] | IC50 [nM] |
| --- | --- | --- |
| Cn1nc2cc(O)c(-c3cc4ccn([C@H]5CC(C)(C)NC(C)(C)[C@H]5F)c4nn3)cc2n1 [Cpd 37, 6-{7-[(3S,4S)-3-fluoro-2,2,6,6-tetramethylpiperidin-4-yl]-7H-pyrrolo[2,3-c]pyridazin-3-yl}-2-methyl-2H-benzotriazol-5-ol] | < 100 | – |
| CCc1nc2cc(-c3cc4ccn([C@H]5CC(C)(C)NC(C)(C)[C@H]5F)c4nn3)c(O)cc2o1 [Cpd 13, 2-ethyl-5-{7-[(3S,4S)-3-fluoro-2,2,6,6-tetramethylpiperidin-4-yl]-7H-pyrrolo[2,3-c]pyridazin-3-yl}-1,3-benzoxazol-6-ol] | < 100 | – |
| Cc1nc2cc(O)c(-c3cc4ccn([C@@H]5CCNC(C)(C)[C@@H]5F)c4nn3)cc2s1 [Cpd 19, 6-{7-[(3R,4R)-3-fluoro-2,2-dimethylpiperidin-4-yl]-7H-pyrrolo[2,3-c]pyridazin-3-yl}-2-methyl-1,3-benzothiazol-5-ol] | – | < 100 |
| Cc1nc2cc(O)c(-c3cc4c(nn3)N([C@@H]3CCNC(C)(C)[C@@H]3F)CC4)cc2s1 (single isomer, unassigned) [Cpd 63, 6-{7-[(3R,4R)-3-fluoro-2,2-dimethylpiperidin-4-yl]-6,7-dihydro-5H-pyrrolo[2,3-c]pyridazin-3-yl}-2-methyl-1,3-benzothiazol-5-ol or 6-{7-[(3S,4S)-3-fluoro-2,2-dimethylpiperidin-4-yl]-6,7-dihydro-5H-pyrrolo[2,3-c]pyridazin-3-yl}-2-methyl-1,3-benzothiazol-5-ol] | < 100 | – |
| Cc1nc2cc(O)c(-c3cc4c(nn3)N([C@@H]3CC5(CCC5)NC[C@@H]3F)CC4)cc2s1 (single isomer, unassigned) [Cpd 61, 6-{7-[(7S,8R)-7-fluoro-5-azaspiro[3.5]nonan-8-yl]-6,7-dihydro-5H-pyrrolo[2,3-c]pyridazin-3-yl}-2-methyl-1,3-benzothiazol-5-ol or 6-{7-[(7R,8S)-7-fluoro-5-azaspiro[3.5]nonan-8-yl]-6,7-dihydro-5H-pyrrolo[2,3-c]pyridazin-3-yl}-2-methyl-1,3-benzothiazol-5-ol] | < 100 | – |
| CC1(C)C[C@H](n2ccc3cc(-c4cc5c(Cl)ccnc5cc4O)nnc32)[C@H](F)C(C)(C)N1 [Cpd 21, 4-chloro-6-{7-[(3S,4S)-3-fluoro-2,2,6,6-tetramethylpiperidin-4-yl]-7H-pyrrolo[2,3-c]pyridazin-3-yl}quinolin-7-ol] | 100 to 500 | – |
| Cc1cnc2cc(O)c(-c3cc4ccn([C@H]5CC(C)(C)NC(C)(C)[C@H]5F)c4nn3)cc2c1 [Cpd 35, 6-{7-[(3S,4S)-3-fluoro-2,2,6,6-tetramethylpiperidin-4-yl]-7H-pyrrolo[2,3-c]pyridazin-3-yl}-3-methylquinolin-7-ol] | < 100 | – |
| Cc1nc2cc(O)c(-c3cc4c(nn3)N([C@@H]3CC(C)(C)NC5(CC5)C3)CC4)cc2o1 [Cpd 95, 6-{7-[(7R)-5,5-dimethyl-4-azaspiro[2.5]octan-7-yl]-6,7-dihydro-5H-pyrrolo[2,3-c]pyridazin-3-yl}-2-methyl-1,3-benzoxazol-5-ol] | < 100 | – |
| COc1cnc2cc(-c3cc4c(nn3)N([C@H]3CC(C)(C)NC(C)(C)[C@H]3F)CC4)c(O)cc2n1 [Cpd 84, 7-{7-[(3S,4S)-3-fluoro-2,2,6,6-tetramethylpiperidin-4-yl]-6,7-dihydro-5H-pyrrolo[2,3-c]pyridazin-3-yl}-3-methoxyquinoxalin-6-ol] | – | < 100 |
| Cc1cc(=O)oc2cc(O)c(-c3cc4c(nn3)N([C@H]3CC(C)(C)NC(C)(C)[C@H]3F)CC4)cc12 [Cpd 65, 6-{7-[(3S,4S)-3-fluoro-2,2,6,6-tetramethylpiperidin-4-yl]-6,7-dihydro-5H-pyrrolo[2,3-c]pyridazin-3-yl}-7-hydroxy-4-methyl-2H-1-benzopyran-2-one] | < 100 | – |
| CC1(C)C[C@H](N2CCc3cc(-c4cc5cc(F)cnc5cc4O)nnc32)[C@H](F)C(C)(C)N1 [Cpd 93, 3-fluoro-6-{7-[(3S,4S)-3-fluoro-2,2,6,6-tetramethylpiperidin-4-yl]-6,7-dihydro-5H-pyrrolo[2,3-c]pyridazin-3-yl}quinolin-7-ol] | < 100 | – |
| CC1(C)C[C@H](n2ccc3cc(-c4cc5oc(=O)[nH]c5cc4O)nnc32)[C@H](F)C(C)(C)N1 [Cpd 36, 6-{7-[(3S,4S)-3-fluoro-2,2,6,6-tetramethylpiperidin-4-yl]-7H-pyrrolo[2,3-c]pyridazin-3-yl}-5-hydroxy-1,3-benzoxazol-2(3H)-one] | < 100 | – |
| O=C1CCc2cc(-c3cc4c(nn3)N([C@H]3CCNC5(CC5)C3)CC4)c(O)cc21 [Cpd 57, 5-{7-[(7S)-4-azaspiro[2.5]octan-7-yl]-6,7-dihydro-5H-pyrrolo[2,3-c]pyridazin-3-yl}-6-hydroxy-2,3-dihydro-1H-inden-1-one] | 100 to 500 | – |
| Cc1nc2cc(-c3cc4c(nn3)N([C@H]3CC(C)(C)NC(C)(C)[C@H]3F)CC4)c(O)cc2[nH]1 [Cpd 46, 5-{7-[(3S,4S)-3-fluoro-2,2,6,6-tetramethylpiperidin-4-yl]-6,7-dihydro-5H-pyrrolo[2,3-c]pyridazin-3-yl}-2-methyl-1H-benzimidazol-6-ol] | < 100 | – |
| COc1cnc2cc(-c3cc4ccn([C@H]5CC(C)(C)NC(C)(C)[C@H]5F)c4nn3)c(O)cc2n1 [Cpd 33, 7-{7-[(3S,4S)-3-fluoro-2,2,6,6-tetramethylpiperidin-4-yl]-7H-pyrrolo[2,3-c]pyridazin-3-yl}-3-methoxyquinoxalin-6-ol] | – | < 100 |
| Cc1cnc2cc(O)c(-c3cc4c(nn3)N([C@H]3CC(C)(C)NC(C)(C)[C@H]3F)CC4)cc2c1 [Cpd 81, 6-{7-[(3S,4S)-3-fluoro-2,2,6,6-tetramethylpiperidin-4-yl]-6,7-dihydro-5H-pyrrolo[2,3-c]pyridazin-3-yl}-3-methylquinolin-7-ol] | < 100 | – |
| Cn1nnc2cc(-c3cc4c(nn3)N([C@H]3CC(C)(C)NC(C)(C)[C@H]3F)CC4)c(O)cc21 [Cpd 50, 5-{7-[(3S,4S)-3-fluoro-2,2,6,6-tetramethylpiperidin-4-yl]-6,7-dihydro-5H-pyrrolo[2,3-c]pyridazin-3-yl}-1-methyl-1H-benzotriazol-6-ol] | < 100 | – |
| Cc1ncc2cc(-c3cc4ccn([C@H]5CC(C)(C)NC(C)(C)[C@H]5F)c4nn3)c(O)cc2n1 [Cpd 15, 6-{7-[(3S,4S)-3-fluoro-2,2,6,6-tetramethylpiperidin-4-yl]-7H-pyrrolo[2,3-c]pyridazin-3-yl}-2-methylquinazolin-7-ol] | – | < 100 |
| COc1nc2cc(O)c(-c3cc4ccn([C@H]5CC(C)(C)NC(C)(C)[C@H]5F)c4nn3)cc2s1 [Cpd 96, 6-{7-[(3S,4S)-3-fluoro-2,2,6,6-tetramethylpiperidin-4-yl]-7H-pyrrolo[2,3-c]pyridazin-3-yl}-2-methoxy-1,3-benzothiazol-5-ol] | < 100 | – |
| Cc1nc2cc(-c3cc4ccn([C@@H]5CCNC6(CCC6)[C@@H]5F)c4nn3)c(O)cc2s1 (single isomer, unassigned) [Cpd 34, 5-{7-[(8R,9R)-9-fluoro-5-azaspiro[3.5]nonan-8-yl]-7H-pyrrolo[2,3-c]pyridazin-3-yl}-2-methyl-1,3-benzothiazol-6-ol or 5-{7-[(8S,9S)-9-fluoro-5-azaspiro[3.5]nonan-8-yl]-7H-pyrrolo[2,3-c]pyridazin-3-yl}-2-methyl-1,3-benzothiazol-6-ol] | 100 to 500 | – |
